Key:
MTT assay on A549 cells = assay type: cell-based, human; conditions: human, A549 lung carcinoma cells, 72 h, read-out: Cell Viability, %; for viability at 72 h, 10 µM: A549, 10 µM; for viability at 72 h, 100 µM: A549, 100 µM
Procedure: (§1) A549, NCI-H460, NCI-H1975 lung cancer cells and WI-26 VA4 lung epithelial-like cells were purchased from the ATCC. A549 cells were maintained in F12-K (Corning, NY, USA) supplemented with 10% fetal bovine serum (Fetal Bovine Serum, qualified, Australia; Gibco, Loughborough, UK), penicillin (100 UI mL^−1), streptomycin (100 µg mL^−1), and GlutaMax (1.9 mM, Gibco, UK). NCI-H460 and NCI-H1975 cells were maintained in RPMI-1640 (ATCC modification) media (Gibco, Loughborough, UK) supplemented with 10% fetal bovine serum (Fetal Bovine Serum, qualified, Australia; Gibco, Loughborough, UK), penicillin (100 UI mL^−1), streptomycin (100 µg mL^−1), and GlutaMax (2 mM, Gibco, UK). WI-26 VA4 cells were maintained in Advanced MEM (Gibco, Loughborough, UK) supplemented with 5% fetal bovine serum (Fetal Bovine Serum, qualified, Australia, Gibco, UK), penicillin (100 UI mL^−1), streptomycin (100 µg mL^−1), and GlutaMax (1.87 mM, Gibco, Loughborough, UK). All cells line cultivation under a humidified atmosphere of 95% air/5% CO2 at 37 °C. Subconfluent monolayers, in the log growth phase, were harvested by a brief treatment with TrypLE Express solution (Gibco, Loughborough, UK) in phosphate buffered saline (PBS, Capricorn Scientific, Germany) and washed three times in serum-free PBS. The number of viable cells was determined by trypan blue exclusion.
(§2) The effects of the synthesized compounds on cell viability were determined using the MTT colorimetric test. All examined cells were diluted with the growth medium to 3.5 × 10^4 cells per mL and the aliquots (7 × 10^3 cells per 200 μL) were placed in individual wells in 96-well plates (Eppendorf, Hamburg, Germany) and incubated for 24 h. The next day, the cells were treated with synthesized compounds separately in concentration 10 and 100 μM (or 200.0 μM concentration and diluted at various concentrations for determination of IC50) and incubated for 72 h at 37 °C in 5% CO2 atmosphere. Each compound was tested in triplicate. After incubation, the cells were treated with 40 μL MTT solution (3-(4,5-dimethylthiazol-2-yl)-2,5-diphenyltetrazolium bromide, 5 mg mL^−1 in PBS) and incubated for 4 h. After additional 4-h incubation, the medium with MTT was removed and DMSO (150 μL) was added to dissolve the formazan crystals. The plates were shaken for 10 min. The optical density of each well was determined at 560 nm using GloMax Multi+ (Promega, Madison, WI, USA) microplate reader. Each of the tested compounds was evaluated for cytotoxicity in three separate experiments. All stock solutions for biological evaluations were prepared via dissolving synthesized compounds in DMSO.

[1] = system: A549 human lung carcinoma cells; experiment: MTT assay on A549 cells; assay type: cell-based; conditions: A549, 72 h
Procedure: as §1, §2

[2] = system: NCI-H460 non-small cell lung carcinoma cells; experiment: MTT assay on NCI-H460 cells; assay type: cell-based, human; conditions: NCI-H460, 72 h
Procedure: as §1, §2

[3] = system: EGFR-mutant NCI-H1975 non-small cell lung carcinoma cells; experiment: MTT assay on NCI-H1975 cells; assay type: cell-based, human; conditions: for IC50: NCI-H1975, 72 h, MTT
Procedure: as §1, §2

[4] = system: non-cancerous lung fibroblast WI-26 VA4; experiment: MTT assay on WI-26 VA4 cells (non-specific cytotoxicity); assay type: cell-based, human; conditions: WI-26 VA4, 72 h
Procedure: as §1, §2

[5] = Molar conductivity in DMSO solution; assay type: physicochemical; conditions: DMSO solutions, 25 °C
Procedure: The preparation and characterization of starting pyridine-N-oxides as well as U1–12 are described previously. CuCl2, other reactants, and solvents were obtained from commercial sources. High-resolution mass-spectra (HRMS) were measured on Bruker Maxis HRMS-ESI-qTOF (Electrospray Ionization, ESI; Bruker, Billerica, MA, USA); a MeOH was used as the solvent. The instrument was operated at positive ion mode using m/z range of 50–3000. The capillary voltage of the ion source was set at –4500 V (ESI^+) and the capillary exit at +(70–150) V. The nebulizer gas pressure was 0.4 bar and drying gas flow was 4.0 L/min. The most intensive peak in the isotopic pattern is reported. Infrared spectra (4000–400 cm^–1) were recorded on a Shimadzu FTIR 8400S (Shimadzu, Kyoto, Japan) instrument in KBr pellets. The C, H, and N elemental analyses were carried out on a Leco TruSpec Micro CHNS analyzer (LECO, St. Joseph, MI, USA). TGA was performed on a ca. 2 mg samples of Cu(II) complexes by using a Netzsch TG 209 F1 Libra thermal analyzer (Netzsch, Selb, Germany). The samples were dried under a vacuum at 50 °C before heating from 40 to 450 °C at a heating rate of 10 K min^–1. A flow rate of 10 mL min^–1 of dry argon was used to purge the samples. Molar conductivity was measured with an Elico digital conductivity bridge model CM-88, using a freshly prepared DMSO solution of the complexes.

NCI-H1975 cells [6] = experiment: Cell cycle analysis by flow cytometry; assay type: cell-based, human; conditions: NCI-H1975, 10, 20, and 35 μM, 48 h
Procedure: For the cell cycle analysis, the cells (1 × 10^6 per well) were placed at 6-well culture plates (Eppendorf, Germany) and allowed to grow overnight. After the medium was replaced with solution tested compounds (10, 20, or 35 μM). The exposed cells were placed at 37 °C in a 5% CO2 incubator for 48 h. After the completion of incubations, cells were harvested by trypsinization, washed with PBS, centrifuged, fixed with 70% ethanol and incubated for 7 h at –20 °C. An aliquot of the pellet (200 µL) was washed with PBS, stained with 200 µL of the Guava Cell Cycle Reagent (Merck, Kenilworth, NJ, USA), and incubated for 30 min at room temperature in the dark. The cell cycle distribution was analyzed by flow cytometry on a CytoFlex (Beckham Coulter, Brea, CA, USA) and CytExpert 2.1 program.

NCI-H1975 cells [7] = experiment: Annexin V-FITC/PI double staining apoptosis assay; assay type: cell-based, human; conditions: NCI-H1975, 50 μM, 48-h incubation
Procedure: For the detection of apoptosis, the cells were placed at 6-well culture plates (Eppendorf, Germany) and allowed to grow overnight. After the cells reached subconfluency, the medium was replaced with tested compounds (25 or 50 μM). The exposed cells were placed at 37 °C in a 5% CO2 incubator for 24 or 48 h. The cultured cells were washed twice with PBS and resuspended in 1× binding buffer (AnnexinV-FITC kit, Invitrogen, Waltham, MA, USA) at a concentration 1 × 10^6 mL^−1. Annexin FITC (5 μL) and propidium iodide (PI, 2 μL) were added to 100 μL of the cell suspension and incubated for 15 min at room temperature (25 °C) in the dark. After incubation, 400 μL of 1× binding buffer was added to each tube and the stained cells were analyzed within 1 h using CytoFlex (Beckman Coulter, Brea, CA, USA) and CytExpert 2.1 program. Since the AnnexinV-FITC staining precedes the loss of membrane integrity that accompanies the later stage identified by PI, Annexin FITC positive, PI negative indicates early apoptosis, while the viable cells are Annexin V FITC negative, PI negative. The cells that are in late apoptosis or dead are both Annexin V FITC and PI positive.

Row | IC50 [1] [µM] | IC50 [2] [µM] | IC50 [3] [µM] | Structure (SMILES) | viability at 72 h, 10 µM (MTT assay on A549 cells) [%] | viability at 72 h, 100 µM (MTT assay on A549 cells) [%] | IC50 [4] [µM] | further results
1 | – | – | – | COc1ccnc(NC(=O)N2CCCCC2)c1 [Complex U10] | 102 ± 5.2 | 99.5 ± 8.1 | – | –
2 | 98.4 ± 11.1 | 102 ± 17.3 | 64.4 ± 10.5 | O=C(Nc1ccccn1)N1CCCCC1.O=C(Nc1ccccn1)N1CCCCC1.[Cl-].[Cl-].[Cu+2] [[Cu(U8)2Cl]^+[Cl]^−] | – | – | 111 ± 19.3 | –
3 | – | – | – | O=C(Nc1ccccn1)N1CCCCC1 [Complex U8] | 100 ± 9.4 | 97.2 ± 6.1 | – | –
4 | 114 ± 14.5 | 136 ± 12.5 | 71.2 ± 6.9 | Cc1nc(-c2ccnc(NC(=O)N(C)C)c2)no1.Cc1nc(-c2ccnc(NC(=O)N(C)C)c2)no1.[Cl-].[Cl-].[Cu+2] [[Cu(U5)2Cl]^+[Cl]^−] | – | – | 118 ± 24.9 | –
5 | – | – | – | CN(C)C(=O)Nc1cc([N+](=O)[O-])ccn1 [Complex U3] | 95.5 ± 3.3 | 91.6 ± 4.3 | – | –
6 | – | – | – | Cc1ccnc(NC(=O)N(C)C)c1 [Complex U2] | 102 ± 2.7 | 98.7 ± 3.8 | – | –
7 | – | – | – | CN(C)C(=O)Nc1cc(C#N)ccn1 [Complex U4] | 94.2 ± 6.7 | 89 ± 5.1 | – | –
8 | 106 ± 12.2 | 118 ± 13.4 | 68.3 ± 8.5 | CN(C)C(=O)Nc1cc(C#N)ccn1.CN(C)C(=O)Nc1cc(C#N)ccn1.[Cl-].[Cl-].[Cu+2] [[Cu(U4)2Cl]^+[Cl]^−] | – | – | 109 ± 16.4 | Molar conductivity [5]: 25.2 Ω^−1·cm^2·mol^−1
9 | 88.7 ± 12.7 | 115 ± 26.3 | 63.8 ± 8.7 | Cc1nnc(-c2ccnc(NC(=O)N(C)C)c2)o1.Cc1nnc(-c2ccnc(NC(=O)N(C)C)c2)o1.[Cl-].[Cl-].[Cu+2] [[Cu(U6)2Cl]^+[Cl]^−] | – | – | 105 ± 14.1 | –
10 | – | – | – | Cc1nnc(-c2ccnc(NC(=O)N(C)C)c2)o1 [Complex U6] | 94.5 ± 7.1 | 89.9 ± 2.4 | – | –
11 | – | – | – | Cc1ccnc(NC(=O)N2CCOCC2)c1 [Complex U12] | 97.4 ± 5.5 | 85.4 ± 7.8 | – | –
12 | 61.4 ± 6.52 | 77.5 ± 6.4 | 39.6 ± 4.5 | CN(C)C(=O)Nc1cc([N+](=O)[O-])ccn1.CN(C)C(=O)Nc1cc([N+](=O)[O-])ccn1.[Cl-].[Cl-].[Cu+2] [[Cu(U3)2Cl2]] | – | – | 81.6 ± 10.1 | selectivity over the healthy human cells WI-26 VA4 ([3]; NCI-H1975 vs WI-26 VA4): the most selective; cells trapped in the G2 phase (NCI-H1975 cells [6]): profound increase; number of cells in the G1 phase (NCI-H1975 cells [6]): remarkable drop; percentage of dead cells (NCI-H1975 cells [7]; control 0.28%): 2.87%; percent of Annexin V FITC-positive early apoptotic cells (NCI-H1975 cells [7]; control 5.25%): 16.30%; late apoptotic fraction in cell population (NCI-H1975 cells [7]; control 12.02%): 22.38%; Molar conductivity [5]: 24.1 Ω^−1·cm^2·mol^−1
13 | 89.3 ± 6.67 | 128 ± 19.5 | 70.2 ± 4.9 | Cc1ccnc(NC(=O)N2CCOCC2)c1.Cc1ccnc(NC(=O)N2CCOCC2)c1.[Cl-].[Cl-].[Cu+2] [[Cu(U12)2Cl]^+[Cl]^−] | – | – | 109 ± 13.7 | –
14 | 107 ± 15.1 | 120 ± 18.4 | 65.3 ± 10.9 | CN(C)C(=O)Nc1ccccn1.CN(C)C(=O)Nc1ccccn1.[Cl-].[Cl-].[Cu+2] [[Cu(U1)2Cl]^+[Cl]^−] | – | – | 108 ± 27.5 | –
15 | – | – | – | O=C(Nc1cc([N+](=O)[O-])ccn1)N1CCCCC1 [Complex U11] | 105 ± 6.7 | 94.3 ± 9 | – | –
16 | – | – | – | CN(C)C(=O)Nc1ccccn1 [Complex U1] | 100 ± 18 | 86.5 ± 7.5 | – | –
17 | 94.5 ± 14.1 | 122 ± 15.3 | 65.4 ± 8.6 | Cc1ccnc(NC(=O)N(C)C)c1.Cc1ccnc(NC(=O)N(C)C)c1.[Cl-].[Cl-].[Cu+2] [[Cu(U2)2Cl]^+[Cl]^−] | – | – | 101 ± 15.1 | Molar conductivity [5]: 24.8 Ω^−1·cm^2·mol^−1
18 | – | – | – | Cc1ccnc(NC(=O)N2CCCCC2)c1 [Complex U9] | 103 ± 6.3 | 98.3 ± 8.1 | – | –
19 | 102 ± 15.8 | 103 ± 13.1 | 66.7 ± 7.6 | O=C(Nc1ccccn1)N1CCCC1.O=C(Nc1ccccn1)N1CCCC1.[Cl-].[Cl-].[Cu+2] [[Cu(U7)2Cl]^+[Cl]^−] | – | – | 100 ± 16.6 | –
20 | 46 ± 4.98 | 53.6 ± 4.7 | 33.4 ± 3.8 | O=C(Nc1cc([N+](=O)[O-])ccn1)N1CCCCC1.O=C(Nc1cc([N+](=O)[O-])ccn1)N1CCCCC1.[Cl-].[Cl-].[Cu+2] [[Cu(U11)2Cl2]] | – | – | 62.4 ± 5.6 | Molar conductivity [5]: 21.7 Ω^−1·cm^2·mol^−1
21 | – | – | – | Cc1nc(-c2ccnc(NC(=O)N(C)C)c2)no1 [Complex U5] | 101 ± 5.5 | 90.2 ± 8.7 | – | –
22 | – | – | – | O=C(Nc1ccccn1)N1CCCC1 [Complex U7] | 103 ± 2.8 | 99.8 ± 5.7 | – | –

Row | Structure (SMILES) | IC50 [1] [µM] | IC50 [2] [µM] | IC50 [3] [µM] | viability at 72 h, 10 µM (MTT assay on A549 cells) [%] | viability at 72 h, 100 µM (MTT assay on A549 cells) [%] | IC50 [4] [µM] | further results
23 | Cc1ccnc(NC(=O)N2CCCCC2)c1.Cc1ccnc(NC(=O)N2CCCCC2)c1.[Cl-].[Cl-].[Cu+2] [[Cu(U9)2Cl]^+[Cl]^−] | 76.1 ± 8.86 | 66.4 ± 5.7 | 61.6 ± 6 | – | – | 113 ± 23.5 | –
